The nature of series [1]: Metabolite profiling of plasma, urine, feces after intravenous dose (HPLC radiodetection, MS). The series is classed as in vivo, rats. As to conditions: iv 10 mg/kg. The protocol: Plasma pools were made from Group 1 rats at the 0.083, 0.25, 0.5, and 1-hour collection time points.
Urine pools were prepared for Group 2 at 0 to 6 and 6 to 12 hours post-dose. […] Four metabolites present at <10% relative observed intensity in at least 1 sample were M7 (<5% relative observed intensity), M16 (<3% relative observed intensity), M19 (<6% relative observed intensity), and M25 (<5% relative observed intensity).
Feces pools were prepared for Group 2 at 0 to 12, 12 to 24, and 24 to 48 hours post-dose.

A further series has as its system DNMT1/3a/3b. The experiment in a line: DNMT1/3a/3b activities, overall statements. The series is classed as biochemical. As to conditions: for effect on enzymatic activities: controls.
Series [2] in a line: Metabolite profiling of plasma and feces after oral dose (radio-HPLC, HPLC/MS). The settings on record: Sprague Dawley, rat, in vivo, 75 mg/kg. On the set-up: species or system rats. How it is done: Radiolabeled components in plasma and feces extracts were profiled and identified using radio-high performance liquid chromatography (HPLC) and high performance liquid chromatography/mass spectrometry (HPLC/MS) methods.
Plasma pools were prepared for Group 1 (75 mg/kg, [14C]-25HC3S) samples collected at 2, 4, and 6 hours post-dose. […] One metabolite M29 was identified as 25-hydroxycholesterol with 37% ROI and a concentration of 1233 ng-equiv./g.
Feces pools were prepared for Group 2 (75 mg/kg, [^14C]-25HC3S) samples collected from 0 to 24, 24 to 48, 48 to 72, 72 to 96, 96 to 120, 120 to 144, and 144 to 168 hours post-dose. A total of eleven metabolites were identified. None of the metabolites were present at ≥5% of dose. Metabolites present at 2-5% of dose were M1(4.5% of total dose and 1%-69% ROI), M3 (4.6% of total dose and 1%-44% ROI), M4 (2.0% of total dose and 0%-10% ROI), M8 (3.1% of total dose and 1%-46% ROI), M29 (1.9% of total dose and 0%-2% ROI), and M30 (3.3% of total dose and 0%-5% ROI).

Procedure for DNMT1/3a/3b: For the DNMT1 activity assay, the substrate solution, 0.001 mg/ml Poly(dI-dC):Poly(dI-dC) in 50 mM Tris-HCl, pH 7.5, 50 mM NaCl, 5 mM EDTA, 5 mM DTT, 1 mM PMSF, 5% glycerol, 0.01% Brij35, 1% DMSO was used. For the DNMT3a/3b activity assay, 0.0075 mg/ml Lambda DNA in 50 mM Tris-HCl, pH 7.5, 50 mM NaCl, 5 mM EDTA, 5 mM DTT, 1 mM PMSF, 5% glycerol, 1% DMSO, was used. The indicated DNMT1, DNMT3a, or DNMT3b was added to the appropriate substrate solution and gently mixed. […] The mixtures were first incubated for 15 min, then ^3H-SAM was added to the reaction mixture to initiate the reaction, and the mixture was incubated for 60 min at 30° C. Following incubation, the reaction mixture was finally transferred to filter-paper for detection of radioactivity counts.

As for desmosterol sulfate, in series [1], the “detection in plasma, urine, or feces samples” value is on record as “Neither desmosterol sulfate nor 25-hydroxycholesterol was detected”.
Still for that read-out and setting: as for `C[C@H](CCCC(C)(C)O)[C@H]1CC[C@H]2[C@@H]3CC=C4C[C@@H](O)CC[C@]4(C)[C@H]3CC[C@]12C` [25HC, 25-Hydroxycholesterol, reference compound], the entry is “Neither desmosterol sulfate nor 25-hydroxycholesterol was detected”.
On to `C[C@@H](CO)CCC[C@@H](C)[C@H]1CC[C@H]2[C@@H]3CC=C4C[C@@H](O)CC[C@]4(C)[C@H]3CC[C@]12C` [27HC, 27-Hydroxycholesterol], for which the “effect on other enzymes (than DNMT-1)” value in the series with DNMT1/3a/3b is “had no effect on other enzymes”.
For the molecule `CC(C)CCC[C@@H](C)[C@H]1CC[C@H]2[C@@H]3CC=C4C[C@@H](OS(=O)(=O)O)CC[C@]4(C)[C@H]3CC[C@]12C` [Xol3S, 5-cholesten-3β-ol, 3-sulfate], the “effect on enzymatic activities” value with DNMT1/3a/3b is “did not significantly affect enzymatic activities”.
On the same count and under the same terms, the entry for `CC(C)CCC[C@@H](C)[C@H]1CC[C@H]2[C@@H]3CC=C4C[C@@H](O)CC[C@]4(C)[C@H]3CC[C@]12C` [Xol, Cholesterol] is “did not significantly affect enzymatic activities”.
In the case of `C[C@H](CCCC(C)(C)O)[C@H]1CC[C@H]2[C@@H]3CC=C4C[C@@H](O)CC[C@]4(C)[C@H]3CC[C@]12C` [M29, 25-hydroxycholesterol], the ROI in feces in series [2] was 0-2%.

Source of the values: patent publication US20230372361A1, “USE OF OXYGENATED CHOLESTEROL SULFATES FOR TREATING INFLAMMATORY CONDITIONS” (Durect Corporation, priority 2020, published 2023).
